Measured values as given in ChEMBL document CHEMBL4184171, “Design and synthesis of a biaryl series as inhibitors for the bromodomains of CBP/P300” (Bioorg Med Chem Lett, 2018).
Values after ≈ are worked out from the molar mass of the structure shown.

Tests used:
in vitro [1] = conditions: human, microsomes
Description: Clearance in human liver microsomes

in vitro [2] = conditions: rat, microsomes
Description: Clearance in rat liver microsomes

[3] = biological target: Bromodomain-containing protein 4 (Homo sapiens, UniProt O60885)
Description: Inhibition of BRD4 bromodomain 1 (unknown origin) by TR-FRET assay

in vitro [4] = conditions: mouse, microsomes
Description: Clearance in mouse liver microsomes

in vitro [5] = conditions: mouse, plasma
Description: Protein binding in mouse plasma

in vitro [6] = conditions: mouse, hepatocytes
Description: Hepatic clearance in mouse hepatocytes

physchem = conditions: buffer, pH 7.4
Description: Kinetic solubility in PBS buffer at pH 7.4

in vivo [7] = conditions: CD-1, mouse
Description: Half life in CD-1 mouse at 1 mg/kg, iv or 5 mg/kg, po

in vivo [8] = conditions: CD-1, mouse, iv, 1 mg/kg
Description: Clearance in CD-1 mouse at 1 mg/kg, iv or 5 mg/kg, po

in vitro [9] = conditions: rat, plasma
Description: Protein binding in rat plasma

in vitro [10] = conditions: dog, MDCK
Description: Apparent permeability from apical to basolateral side in MDCK cells

in vivo [11] = conditions: CD-1, mouse, iv, 1 mg/kg; remark: listed apart in the source
Description: Volume of distribution at steady state in CD-1 mouse at 1 mg/kg, iv or 5 mg/kg, po

in vitro [12] = conditions: rat, hepatocytes
Description: Hepatic clearance in rat hepatocytes

in vitro [13] = conditions: human, plasma
Description: Protein binding in human plasma

in vitro [14] = conditions: human, hepatocytes
Description: Hepatic clearance in human hepatocytes

in vivo [15] = conditions: CD-1, mouse, po, 5 mg/kg

SMILES	CLhep predicted (in vitro [1])	CLhep predicted (in vitro [2])	IC50 [3]	CLhep predicted (in vitro [4])	other results
COc1ccc(-c2nn(C3CCOCC3)c3c2CN(C(C)=O)CC3)c2cnccc12			11 µM		
CC(=O)N1CCc2c(c(-c3cc(CO)cc4ccncc34)nn2C2CCOCC2)C1			> 20 µM		
CC(=O)N1CCc2c(c(-c3cncc4ccccc34)nn2C2CCOCC2)C1			> 20 µM		
CC(=O)N1CCc2c(c(-c3cccc4c[nH]c(=O)cc34)nn2C2CCOCC2)C1			> 20 µM		

Stronger by IC50 [3], values ahead:

CLhep predicted (in vitro [1])	CLhep predicted (in vitro [2])	IC50 [3]	CLhep predicted (in vitro [4])	SMILES	other results
11 mL/min/kg	45 mL/min/kg	3.8 µM	32 mL/min/kg	CC(=O)N1CCc2c(c(-c3cccc4cc(-c5cn(C)nc5C#N)ncc34)nn2C2CCOCC2)C1	
8 to 8.3 mL/min/kg	18 mL/min/kg	2.5 µM	20 mL/min/kg	CC(=O)N1CCc2c(c(-c3cccc4cc(-c5cnn(C)c5)ncc34)nn2C2CCOCC2)C1	fraction unbound (in vitro [5]): 0.15; CLhep predicted (in vitro [6]): < 21 mL/min/kg; solubility kinetic (physchem): 92 µM (≈ 42 µg/mL); half-life (in vivo [7]): 1.6 h; clearance (in vivo [8]): 11 mL/min/kg; fraction unbound (in vitro [9]): 0.24; Papp A→B (in vitro [10]): 10 ×10⁻⁶ cm/s; Vd (in vivo [11]): 1.3 L/kg; CLhep predicted (in vitro [12]): 14 mL/min/kg; fraction unbound (in vitro [13]): 0.3; CLhep predicted (in vitro [14]): < 6 mL/min/kg; bioavailability (in vivo [15]): 67%
